Patent US5919668A, “Non-reducing saccharide and its production and use” (Kabushiki Kaisha Hayashibara Seibutsu Kagaku Kenkyujo, priority 1994, dated 1999)

Columns and labels:
rice alpha-glucosidase = experiment: Degradation by rice alpha-glucosidase; type: biochemical; conditions: for Glucose in degradation product by alpha-glucosidase / Others in degradation product by alpha-glucosidase / Trehalose in degradation product by alpha-glucosidase: pH4.0, 37° C., 18 hours
Procedure: (§1) The non-reducing saccharide preparations PI, PII, PIII, PIV and PV as substrates prepared in Experiment 4 were subjected to pig pancreas alpha-amylase, rice alpha-glucosidase and acetone-pulverized rat small intestine enzyme, all of which were products of Sigma Chemical Co., St Louis, Mo., USA, and the degradation products were analyzed on high-performance liquid chromatography for saccharide composition. The reaction by alpha-amylase was carried out by dissolving 10 mg of either substrate in 1 ml of 50 mM phosphate buffer (pH6.9), adding thereto one unit of alpha-amylase and incubating at 37° C. for 18 hours. The reaction by alpha-glucosidase was conducted similarly as in the case of alpha-amylase except that 50 mM acetate buffer (pH4.0) was used. In the case of acetone-pulverized rat small intestine enzyme, the reaction was conducted similarly as in the case of alpha-amylase except that 50 mM maleic acid buffer (pH6.0) was used.

[1] = system: pig pancreas alpha-amylase; experiment: Degradation by pig pancreas alpha-amylase; type: biochemical; conditions: for G1 (glucose) in degradation product by alpha-amylase / G2 (maltose) in degradation product by alpha-amylase / G3 (maltotriose) in degradation product by alpha-amylase / PI in degradation product by alpha-amylase / PII in degradation product by alpha-amylase: pH6.9, 37° C., 18 hours
Procedure: as §1

mice = experiment: Acute toxicity test, oral administration in mice; type: in vivo; conditions: oral, mice
Procedure: Acute toxicity tests were conducted on the non-reducing saccharide preparations PI, PII, PIII, PIV and PV prepared in Experiment 4, where they were orally administered to 7 week-old dd mice. […] Thus the LD50 of these saccharides was at least 50 g/kg or higher.
An acute toxicity test was conducted on a high-purity trehalose preparation obtained by the method in Experiment 17, purity of 99.5%, where it was orally administered in mice. […] Thus its LD50 would be briefly 50 g/kg or higher.

glucoamylase = experiment: Enzymatic hydrolysis by glucoamylase; type: biochemical; conditions: for Molar ratio (glucose/trehalose): degradation product by glucoamylase; for Glucose in degradation product by glucoamylase / Trehalose in degradation product by glucoamylase: pH4.5, 40° C., 6 hours
Procedure: Fifty milligrams of the non-reducing saccharide preparation PI, PII, PIII, PIV or PV prepared in Experiment 4 was dissolved in 1 ml of 50 mM acetate buffer (pH4.5), added with one unit of the glucoamylase commercialized by Seikagaku Corp., Tokyo, Japan, incubated at 40° C. for 6 hours for enzymatic hydrolysis and analyzed for degradation products on high-performance liquid chromatography, thus detecting glucose and trehalose as sole products. The noted glucose contents, trehalose contents and their molar ratios were as shown in Table 5.

pig kidney trehalase = experiment: Degradation by pig kidney trehalase; type: biochemical; conditions: trehalose, or trehalose formed from PI-PV; pH5.7, 37° C., 18 hours for the latter
Procedure: In order to purify trehalose from respective reaction products, they were decolored, deionized, concentrated and subjected to column fractionation on a strongly-acidic cation exchange of sodium form "XT-1016", followed by recovering high-purity fractions with trehalose contents of 97% or higher. The fractions were then concentrated to about 65% and allowed to standing at 25° C. for 2 days to crystallize out crystalline trehalose hydrate which was then separated and dried in vacuo to obtain a high-purity preparation with a trehalose content of 99% or higher. The yields against respective starting substrates on dry solid basis were as follows: from glycosyl trehalose, 9.5%; from maltosyl trehalose, 14.9%; from maltotriosyl trehalose, 16.0%; from maltotetraosyl trehalose, 18.5%; and from maltopentaosyl trehalose, 17.7%. […] As evident from the above results, the saccharides formed by subjecting alpha-glycosyl trehaloses to the trehalose-releasing enzyme were identified to be trehalose.

beta-amylase = experiment: Degradation by beta-amylase; type: biochemical
Source text: Considering the reaction characteristics of glucoamylase, these saccharides very likely bear structures where glucose molecule(s) is bound to trehalose molecule via alpha1,4 or alpha-1,6 linkage: Saccharide PI is a non-reducing saccharide with a glucose polymerization degree of 3 where one glucose molecule is bound to one trehalose molecule; saccharide PII, another non-reducing saccharide with a glucose polymerization degree of 4 where two glucose molecules are bound to one trehalose molecule; saccharide PIII, still another non-reducing saccharide with a glucose polymerization degree of 5 where three glucose molecules are bound to one trehalose molecule; saccharide PIV, still another non-reducing saccharide with a glucose polymerization degree of 6 where four glucose molecules are bound to one trehalose molecule; and saccharide PV, still another non-reducing saccharide with a polymerization degree of 7 where five glucose molecules are bound to one trehalose molecule.

[2] = Maillard reaction (coloration with glycine, absorbance at 480 nm); type: physicochemical; conditions: for Coloration degree at 480 nm: 10% saccharide, 1% glycine, 50 mM phosphate buffer pH7.0, 100° C., 90 minutes, 1 cm cuvette; for Coloration degree relative to maltooligosaccharides as material: 480 nm, with glycine
Procedure: Solutions of 10% saccharide preparation PI, PII, PIII, PIV or PV prepared in Experiment 4 and 1% glycine in 50 mM phosphate buffer (pH7.0) were incubated at 100° C. for 90 minuets, cooled and determined in 1 cm cuvette for absorbance at 480 nm. As control, maltotriose, maltotetraose, maltopentaose, maltohexaose and maltoheptaose which were used as the starting materials were treated similarly as above and determined for absorbance at 480 nm.
10% High-purity trehalose preparation, purity of 99.5%, obtained by the method in Experiment 17 and 1% glycine in 50 mM phosphate buffer (pH7.0) was incubated at 100° C. for 90 minutes, cooled and measured in lcm cuvette for absorbance at 480 nm. As control, glucose and maltose were treated similarly as above and then measured for absorbance at 480 nm.

[3] = system: acetone-pulverized rat small intestine enzyme; experiment: Degradation by acetone-pulverized rat small intestine enzyme; type: biochemical; conditions: for Glucose in degradation product by acetone-powdered rat small intestine enzyme / Others in degradation product by acetone-powdered rat small intestine enzyme / Trehalose in degradation product by acetone-powdered rat small intestine enzyme: pH6.0, 37° C., 18 hours
Procedure: as §1

[4] = Reducing power by the Somogyi-Nelson method, represented in terms of DE; type: physicochemical; conditions: high-purity preparations, Somogyi-Nelson method
Procedure: The high-purity preparations of the newly formed saccharides were determined for reducing power by the Somogyi-Nelson method and represented in terms of DE.

Structure (SMILES)	Degradation by alpha-glucosidase (in words) (rice alpha-glucosidase)	Glucose in degradation product by alpha-glucosidase (rice alpha-glucosidase) [%]	Others in degradation product by alpha-glucosidase (rice alpha-glucosidase) [%]	Trehalose in degradation product by alpha-glucosidase (rice alpha-glucosidase) [%]	Degradation by alpha-amylase (in words) [1]	G1 (glucose) in degradation product by alpha-amylase [1] [%]	G2 (maltose) in degradation product by alpha-amylase [1] [%]	G3 (maltotriose) in degradation product by alpha-amylase [1] [%]	PI in degradation product by alpha-amylase [1] [%]	PII in degradation product by alpha-amylase [1] [%]	Animal death at the possible highest dose (mice)	Degradation by glucoamylase (in words) (glucoamylase)	Molar ratio (glucose/trehalose) (glucoamylase)	Glucose in degradation product by glucoamylase (glucoamylase) [%]	Trehalose in degradation product by glucoamylase (glucoamylase) [%]	Degradation by pig kidney trehalase (in words) (pig kidney trehalase)	Degradation by beta-amylase (in words) (beta-amylase)	Coloration degree at 480 nm [2]	Coloration degree relative to maltooligosaccharides as material [2]	Degradation by acetone-pulverized rat small intestine enzyme (in words) [3]	further results
OC[C@H]1O[C@H](O[C@H]2O[C@H](CO)[C@@H](O[C@H]3O[C@H](CO)[C@@H](O[C@H]4O[C@H](CO)[C@@H](O[C@H]5O[C@H](CO)[C@@H](O)[C@H](O)[C@H]5O)[C@H](O)[C@H]4O)[C@H](O)[C@H]3O)[C@H](O)[C@H]2O)[C@H](O)[C@@H](O)[C@@H]1O [PIII, alpha-maltotriosyl trehalose]	degradable	61.7	0.2	38.1	degraded by alpha-amylase into smaller oligosaccharides	1.2	33.0	0	61.0	4.8	no animal death was observed	three glucose molecules and one trehalose molecule	3.02	61.4	38.6	degradable into glucose by the trehalase	degraded into one maltose molecule and one saccharide PI molecule	0.012	3-6%	degradable	Glucose in degradation product by acetone-powdered rat small intestine enzyme [3]: 62.0%; Others in degradation product by acetone-powdered rat small intestine enzyme [3]: 0.4%; Trehalose in degradation product by acetone-powdered rat small intestine enzyme [3]: 37.6%; DE of saccharide preparation [4]: 0.10
OC[C@H]1O[C@H](O[C@H]2O[C@H](CO)[C@@H](O[C@H]3O[C@H](CO)[C@@H](O)[C@H](O)[C@H]3O)[C@H](O)[C@H]2O)[C@H](O)[C@@H](O)[C@@H]1O [PI, alpha-glucosyl trehalose]	degradable	36.5	0.5	63.0	hardly degraded by alpha-amylase	0	0.4	2.3	97.3	0	no animal death was observed	degraded by glucoamylase into one glucose molecule and one trehalose molecule	1.07	36.2	63.8	degradable into glucose by the trehalase	not degraded	0.027	3-6%	degradable	Glucose in degradation product by acetone-powdered rat small intestine enzyme [3]: 37.2%; Others in degradation product by acetone-powdered rat small intestine enzyme [3]: 0.4%; Trehalose in degradation product by acetone-powdered rat small intestine enzyme [3]: 62.4%; DE of saccharide preparation [4]: 0.83
